# According to the supplement of paper PMC11061612:
# What was measured:
# [1] = tested on: JVM-3 (B-Cell Non-Hodgkin's Lymphoma); assay: combination Emax (second highest fraction inhibited in the dose matrix, 72 h); higher = more inhibition; extreme values may be limits of the assay
# How it was run: (§1)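 Bliss excess equals the observed combination effect minus the expected value EA + EB − EA·EB, where EA and EB are the effects of each agent alone. Combination Emax is the second-highest inhibition within the matrix. Inhibition was scaled from CellTiter-Glo 2.0 luminescence, with 0 set by vehicle wells and 1 by blank wells, after 72 hours of two-drug dosing of cells plated in 1536-well plates.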
# [2] = tested on: YH-13 (Glioblastoma); assay: Bliss excess, mean over the matrix (fraction); higher = more synergy
# How it was run: as §1
# [3] = tested on: SU8686 (Pancreatic Carcinoma); assay: as above
# How it was run: as §1
# [4] = tested on: JVM-3 (B-Cell Non-Hodgkin's Lymphoma); assay: as above
# How it was run: as §1
SMILES,combination Emax [1],Bliss excess [2],Bliss excess [3],Bliss excess [4]
"CN(C)CCCOc1ccc(-c2ccc3ncc4c(c3c2)n(C2CCOCC2)c(=O)n4C)cn1 [AZD0156] + C=CCn1c(=O)c2cnc(Nc3ccc(N4CCN(C)CC4)cc3)nc2n1-c1cccc(C(C)(C)O)n1 [AZD1775] (first compound max 1 µM, partner max 1 µM)",0.895,-0.0238,-0.0231,-0.0347
"CN(C)CCCOc1ccc(-c2ccc3ncc4c(c3c2)n(C2CCOCC2)c(=O)n4C)cn1 [AZD0156] + CCN(CCO)CCCOc1ccc2c(Nc3cc(CC(=O)Nc4cccc(F)c4)[nH]n3)ncnc2c1 [AZD2811] (first compound max 1 µM, 7x7, partner max 1 µM)",0.543,-0.0119,-0.0375,-0.0252
"CN(C)CCCOc1ccc(-c2ccc3ncc4c(c3c2)n(C2CCOCC2)c(=O)n4C)cn1 [AZD0156] + C[C@@H]1COCCN1C2=NC(=NC(=C2)C3(CC3)[S@](=N)(=O)C)C4=C5C=CNC5=NC=C4 [AZD6738] (first compound max 1 µM, 7x7, partner max 10 µM)",0.783,0.0019,0.0025,-0.0183
"CN(C)CCCOc1ccc(-c2ccc3ncc4c(c3c2)n(C2CCOCC2)c(=O)n4C)cn1 [AZD0156] + O=C(c1cc(Cc2n[nH]c(=O)c3ccccc23)ccc1F)N1CCN(C(=O)C2CC2)CC1 [Olaparib] (first compound max 3 µM, partner max 3 µM)",0.684,0.067,-0.0011,0.234
"C=CCn1c(=O)c2cnc(Nc3ccc(N4CCN(C)CC4)cc3)nc2n1-c1cccc(C(C)(C)O)n1 [AZD1775] + C1CN(CCC1(C(=O)N[C@@H](CCO)C2=CC=C(C=C2)Cl)N)C3=NC=NC4=C3C=CN4 [Capivasertib] (first compound max 3 µM, partner max 3 µM)",0.971,-0.0309,-0.0619,0.0012
"C=CCn1c(=O)c2cnc(Nc3ccc(N4CCN(C)CC4)cc3)nc2n1-c1cccc(C(C)(C)O)n1 [AZD1775] + C[C@@H]1COCCN1C2=NC(=NC(=C2)C3(CC3)[S@](=N)(=O)C)C4=C5C=CNC5=NC=C4 [AZD6738] (first compound max 1 µM, partner max 10 µM)",0.876,-0.0142,-0.0188,-0.0178
"C=CCn1c(=O)c2cnc(Nc3ccc(N4CCN(C)CC4)cc3)nc2n1-c1cccc(C(C)(C)O)n1 [AZD1775] + O=C(c1cc(Cc2n[nH]c(=O)c3ccccc23)ccc1F)N1CCN(C(=O)C2CC2)CC1 [Olaparib] (first compound max 1 µM, partner max 10 µM)",0.895,-0.0513,-0.0399,-0.109
"CCN(CCO)CCCOc1ccc2c(Nc3cc(CC(=O)Nc4cccc(F)c4)[nH]n3)ncnc2c1 [AZD2811] + C=CCn1c(=O)c2cnc(Nc3ccc(N4CCN(C)CC4)cc3)nc2n1-c1cccc(C(C)(C)O)n1 [AZD1775] (first compound max 1 µM, partner max 1 µM)",0.775,-0.003,-0.0166,0.0365
"CCN(CCO)CCCOc1ccc2c(Nc3cc(CC(=O)Nc4cccc(F)c4)[nH]n3)ncnc2c1 [AZD2811] + C[C@@H]1COCCN1C2=NC(=NC(=C2)C3(CC3)[S@](=N)(=O)C)C4=C5C=CNC5=NC=C4 [AZD6738] (first compound max 1 µM, 7x7, partner max 10 µM)",0.723,-0.0931,-0.034,-0.0101
"CCN(CCO)CCCOc1ccc2c(Nc3cc(CC(=O)Nc4cccc(F)c4)[nH]n3)ncnc2c1 [AZD2811] + O=C(c1cc(Cc2n[nH]c(=O)c3ccccc23)ccc1F)N1CCN(C(=O)C2CC2)CC1 [Olaparib] (first compound max 1 µM, 7x7, partner max 10 µM)",0.45,0.0304,-0.0075,-0.0119
"CN(CCO)CC[C@H](CSc1ccccc1)Nc1ccc(S(=O)(=O)NC(=O)c2ccc(N3CCC([C@@H](O)c4ccccc4-c4ccc(Cl)cc4)CC3)cc2)cc1S(=O)(=O)C(F)(F)F [AZD4320] + CN(C)CCCOc1ccc(-c2ccc3ncc4c(c3c2)n(C2CCOCC2)c(=O)n4C)cn1 [AZD0156] (first compound max 1 µM, 7x7, partner max 1 µM)",0.92,-0.0489,-0.0404,0.0006
"Cc1c2c(nn1C)CSCc1cc(n(C)n1)CSc1cc(c3ccccc3c1)OCCCc1c(C(=O)O)n(C)c3c-2c(Cl)ccc13 [AZD5991] + C1CN(CCC1(C(=O)N[C@@H](CCO)C2=CC=C(C=C2)Cl)N)C3=NC=NC4=C3C=CN4 [Capivasertib] (first compound max 1 µM, 7x7, partner max 3 µM)",0.544,-0.0229,-0.0177,-0.0363
"Cc1c2c(nn1C)CSCc1cc(n(C)n1)CSc1cc(c3ccccc3c1)OCCCc1c(C(=O)O)n(C)c3c-2c(Cl)ccc13 [AZD5991] + C=CCn1c(=O)c2cnc(Nc3ccc(N4CCN(C)CC4)cc3)nc2n1-c1cccc(C(C)(C)O)n1 [AZD1775] (first compound max 1 µM, partner max 1 µM)",0.92,-0.0275,0.0175,-0.0884
"Cc1c2c(nn1C)CSCc1cc(n(C)n1)CSc1cc(c3ccccc3c1)OCCCc1c(C(=O)O)n(C)c3c-2c(Cl)ccc13 [AZD5991] + CC1(C)CCC(CN2CCN(c3ccc(C(=O)NS(=O)(=O)c4ccc(NCC5CCOCC5)c([N+](=O)[O-])c4)c(Oc4cnc5[nH]ccc5c4)c3)CC2)=C(c2ccc(Cl)cc2)C1 [Venetoclax] (first compound max 1 µM, 7x7, partner max 1 µM)",0.764,-0.0433,-0.0391,0.146
"Cc1c2c(nn1C)CSCc1cc(n(C)n1)CSc1cc(c3ccccc3c1)OCCCc1c(C(=O)O)n(C)c3c-2c(Cl)ccc13 [AZD5991] + CCN(CCO)CCCOc1ccc2c(Nc3cc(CC(=O)Nc4cccc(F)c4)[nH]n3)ncnc2c1 [AZD2811] (first compound max 1 µM, 7x7, partner max 1 µM)",0.486,0.0141,-0.0135,0.0892
"NC1(C(=O)N[C@@H](CCO)c2ccc(Cl)cc2)CCN(c2ncnc3[nH]ccc23)CC1 [Capivasertib] + COc1nnc2ccc(N3CCC(c4ccc(OCCN5CCN(C)C(=O)[C@H]5C)cc4)CC3)nn12 [AZD5153] (first compound max 10 µM, 7x7, partner max 1 µM)",,0.0553,-0.0359,
"NC1(C(=O)N[C@@H](CCO)c2ccc(Cl)cc2)CCN(c2ncnc3[nH]ccc23)CC1 [Capivasertib] + C[C@@H]1COCCN1C2=NC(=NC(=C2)C3(CC3)[S@](=N)(=O)C)C4=C5C=CNC5=NC=C4 [AZD6738] (first compound max 10 µM, 7x7, partner max 10 µM)",,-0.0771,-0.032,
"NC1(C(=O)N[C@@H](CCO)c2ccc(Cl)cc2)CCN(c2ncnc3[nH]ccc23)CC1 [Capivasertib] + Cn1cnc2c(F)c(Nc3ccc(Br)cc3Cl)c(C(=O)NOCCO)cc21 [Selumetinib] (first compound max 10 µM, 7x7, partner max 10 µM)",,0.0235,0.0012,
"CS(=O)(=O)CCNCc1ccc(-c2ccc3ncnc(Nc4ccc(OCc5cccc(F)c5)c(Cl)c4)c3c2)o1 [Lapatinib] + C[C@@H](Oc1cc(-c2cnn(C3CCNCC3)c2)cnc1N)c1c(Cl)ccc(F)c1Cl [Crizotinib] (first compound max 10 µM, 7x7, partner max 10 µM)",,-0.0388,-0.0299,
"CC(=O)c1c(C)c2cnc(Nc3ccc(N4CCNCC4)cn3)nc2n(C2CCCC2)c1=O [Palbociclib] + CC1(C)CCC(CN2CCN(c3ccc(C(=O)NS(=O)(=O)c4ccc(NCC5CCOCC5)c([N+](=O)[O-])c4)c(Oc4cnc5[nH]ccc5c4)c3)CC2)=C(c2ccc(Cl)cc2)C1 [Venetoclax] (first compound max 10 µM, 7x7, partner max 1 µM)",,0.0451,-0.0391,
"CC(=O)c1c(C)c2cnc(Nc3ccc(N4CCNCC4)cn3)nc2n(C2CCCC2)c1=O [Palbociclib] + Cc1c2c(nn1C)CSCc1cc(n(C)n1)CSc1cc(c3ccccc3c1)OCCCc1c(C(=O)O)n(C)c3c-2c(Cl)ccc13 [AZD5991] (first compound max 10 µM, 7x7, partner max 1 µM)",,-0.003,-0.0405,
"CC(=O)c1c(C)c2cnc(Nc3ccc(N4CCNCC4)cn3)nc2n(C2CCCC2)c1=O [Palbociclib] + Cn1cnc2c(F)c(Nc3ccc(Br)cc3Cl)c(C(=O)NOCCO)cc21 [Selumetinib] (first compound max 10 µM, 7x7, partner max 10 µM)",,0.0093,-0.0971,
"CCc1c2c(nc3ccc(O)cc13)-c1cc3c(c(=O)n1C2)COC(=O)[C@]3(O)CC [SN-38] + O=C(c1cc(Cc2n[nH]c(=O)c3ccccc23)ccc1F)N1CCN(C(=O)C2CC2)CC1 [Olaparib] (first compound max 0.3 µM, 7x7, partner max 10 µM)",0.998,0.0927,,0.0365
"Cn1cnc2c(F)c(Nc3ccc(Br)cc3Cl)c(C(=O)NOCCO)cc21 [Selumetinib] + C=CCn1c(=O)c2cnc(Nc3ccc(N4CCN(C)CC4)cc3)nc2n1-c1cccc(C(C)(C)O)n1 [AZD1775] (first compound max 10 µM, partner max 1 µM)",,-0.0489,-0.0089,
"Cn1cnc2c(F)c(Nc3ccc(Br)cc3Cl)c(C(=O)NOCCO)cc21 [Selumetinib] + CC(C)n1c(=O)n(C)c2cnc3cc(F)c(-c4ccc(OCCCN5CCCCC5)nc4)cc3c21 [AZD1390] (first compound max 10 µM, 7x7, partner max 0.3 µM)",,-0.0342,-0.0255,
"Cn1cnc2c(F)c(Nc3ccc(Br)cc3Cl)c(C(=O)NOCCO)cc21 [Selumetinib] + CCN(CCO)CCCOc1ccc2c(Nc3cc(CC(=O)Nc4cccc(F)c4)[nH]n3)ncnc2c1 [AZD2811] (first compound max 10 µM, 7x7, partner max 1 µM)",,-0.14,-0.0179,
"Cn1cnc2c(F)c(Nc3ccc(Br)cc3Cl)c(C(=O)NOCCO)cc21 [Selumetinib] + C[C@@H]1COCCN1C2=NC(=NC(=C2)C3(CC3)[S@](=N)(=O)C)C4=C5C=CNC5=NC=C4 [AZD6738] (first compound max 10 µM, 7x7, partner max 10 µM)",,-0.0485,-0.0168,
